Data taken from ChEMBL document CHEMBL4390686, “Design, Synthesis, and Pharmacokinetic Evaluation of Phosphate and Amino Acid Ester Prodrugs for Improving the Oral Bioavailability of the HIV-1 Protease Inhibitor Atazanavir” (J Med Chem, 2019).
In brackets after ≈: the same amount, converted by molar mass. One block for each molecule: values may come before it.

Experiments:
[1] = AUClast in cannulated Sprague-Dawley rat assessed as atazanavir level at 30 mg/kg equiv of atazanavir administered orally by UPLC/MS/MS analysis; assay type: ADME, organism-based; parameters: dose 30 mg/kg, route oral, time 0 - last; conditions: in vivo, po
[2] = Stability in pH 6.5 30%CH3CN/phosphate buffer assessed as parent compound remaining at 50 mM measured after 30 mins by RP-UPLC analysis; assay type: physicochemical; conditions: read-out: Stability
[3] = Cmax in cannulated Sprague-Dawley rat assessed as atazanavir level at 30 mg/kg equiv of atazanavir administered orally by UPLC/MS/MS analysis; assay type: ADME, organism-based; parameters: dose 30 mg/kg, route oral; conditions: in vivo, po
[4] = Cmin in cannulated Sprague-Dawley rat at 30 mg/kg equiv of atazanavir administered orally measured after 24 hrs by UPLC/MS/MS analysis; assay type: ADME, organism-based; conditions: in vivo, po, BLD = below limit of detection
[5] = physchem; conditions: HCl buffer, pH 1
Description: Aqueous solubility of the compound in pH 1 HCl buffer by RP-UPLC analysis

[6] = physchem; conditions: 30% CH3CN/acetate buffer, pH 4
Description: Half life in pH 4 30%CH3CN/acetate buffer at 50 mM by RP-UPLC analysis

[7] = Cmin in cannulated Sprague-Dawley rat assessed as atazanavir level at 3 mg/kg equiv of atazanavir administered orally measured after 24 hrs by UPLC/MS/MS analysis; assay type: ADME, organism-based; conditions: in vivo, po, read-out: Cmin
[8] = Stability in pH 6.5 30%CH3CN/phosphate buffer assessed as parent compound remaining at 50 mM measured after 2 mins by RP-UPLC analysis; assay type: physicochemical; conditions: read-out: Stability
[9] = rat, in vivo, po, 3 mg/kg
[10] = Cmin in cannulated Sprague-Dawley rat assessed as atazanavir level at 30 mg/kg equiv of atazanavir administered orally measured after 24 hrs by UPLC/MS/MS analysis; assay type: ADME, organism-based; conditions: in vivo, po, read-out: Cmin
[11] = physchem; conditions: 30% CH3CN/HCl buffer, pH 1
Description: Half life in pH 1 30%CH3CN/HCl buffer at 50 mM by RP-UPLC analysis

[12] = rat, in vivo, po, 3 mg/kg; remark: listed apart in the source
[13] = Tmax in cannulated Sprague-Dawley rat assessed as atazanavir level at 30 mg/kg equiv of atazanavir administered orally by UPLC/MS/MS analysis; assay type: ADME, organism-based; conditions: in vivo, po
[14] = physchem; conditions: 30% CH3CN/phosphate buffer, pH 6.5
Description: Half life in pH 6.5 30%CH3CN/phosphate buffer at 50 mM by RP-UPLC analysis

[15] = Cmin in cannulated Sprague-Dawley rat at 3 mg/kg equiv of atazanavir administered orally measured after 24 hrs by UPLC/MS/MS analysis; assay type: ADME, organism-based; conditions: in vivo, po, BLD = below limit of detection
[16] = rat, in vivo, po, 3 mg/kg; remark: listed apart in the source
Description: AUClast in cannulated Sprague-Dawley rat assessed as atazanavir level at 3 mg/kg equiv of atazanavir administered orally by UPLC/MS/MS analysis

[17] = Drug recovery in intestinal homogenates of closed loop rat intestinal model at 1 mg/kg administered as cassette dose by LC/MS analysis; assay type: ADME, organism-based, Intestine; conditions: intestinal homogenate, other: closed loop intestinal model, read-out: Drug recovery
[18] = Drug recovery in mesenteric vein plasma of closed loop rat intestinal model at 1 mg/kg administered as cassette dose by LC/MS analysis; assay type: ADME, organism-based; conditions: in vivo
[19] = Drug recovery in intestinal content of closed loop rat intestinal model at 1 mg/kg administered as cassette dose by LC/MS analysis; assay type: ADME, organism-based; conditions: in vivo
[20] = (§1) Tmax in cannulated Sprague-Dawley rat assessed as (S)-(5S,10S,11S,14S)-11-Benzyl-5,14-di-tert-butyl-3,6,13,16-tetraoxo-8-(4-(pyridin-2-yl)benzyl)-2,17-dioxa-4,7,8,12,15-pentaazaoctadecan-10-yl 2-amino-3-methylbutanoate level at 3 mg/kg equiv of atazanavir administered orally by UPLC/MS/MS analysis; assay type: ADME, organism-based; conditions: in vivo, po
[21] = physchem; conditions: acetate buffer, pH 4
Description: Aqueous solubility of the compound in pH 4 acetate buffer by RP-UPLC analysis

[22] = target: Protease (Human immunodeficiency virus 1, UniProt Q9YQ12)
Protease, sequence (Q9YQ12 whole entry): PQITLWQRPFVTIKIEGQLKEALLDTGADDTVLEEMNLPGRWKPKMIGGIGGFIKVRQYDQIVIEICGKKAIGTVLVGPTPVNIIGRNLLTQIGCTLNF
Description: Inhibition of HIV1 protease activity

[23] = as §1, with “AUClast” for “Tmax”; assay type: ADME, organism-based; parameters: dose 3 mg/kg, time 0 - last, route oral; conditions: in vivo, po
[24] = tested on: Human immunodeficiency virus 1
Description: Antiviral activity against HIV1 NL4-3 infected in human MT2 cells assessed as reduction in viral yield measured after 4 days by EnduRen live cell substrate based luciferase reporter gene assay

[25] = Cmax in cannulated Sprague-Dawley rat assessed as (S)-(5S,10S,11S,14S)-11-Benzyl-5,14-di-tert-butyl-3,6,13,16-tetraoxo-8-(4-(pyridin-2-yl)benzyl)-2,17-dioxa-4,7,8,12,15-pentaazaoctadecan-10-yl 2-amino-3-methylbutanoate level at 3 mg/kg equiv of atazanavir administered orally by UPLC/MS/MS analysis; assay type: ADME, organism-based; parameters: dose 3 mg/kg, route oral; conditions: in vivo, po
[26] = physchem; conditions: phosphate buffer, pH 6.5
Description: Aqueous solubility of the compound in pH 6.5 phosphate buffer by RP-UPLC analysis

- AUClast [1]: 16.58 µM·h
- remaining at 0.5 h, 50000 µM [2]: 2%
- Cmax [3]: 8760 nM
- Cmin [4]: Bld
- solubility [5]: 1170 µg/mL
- half-life at 50000 µM [6]: 9.03 h
- concentration [7]: 1.9 nM
- remaining at 2 min, 50000 µM [8]: 86.1%
- Cmax [9]: 794 nM
- concentration [10]: 30.4 nM
- half-life at 50000 µM [11]: > 500 h
- Tmax [12]: 1 h
- Tmax [13]: 1 h
- half-life at 50000 µM [14]: 0.08 h
- Cmin [15]: Bld
- AUClast [16]: 1.533 µM·h
Compound: COC(=O)N[C@H](C(=O)N[C@@H](Cc1ccccc1)[C@H](CN(Cc1ccc(-c2ccccn2)cc1)NC(=O)[C@@H](NC(=O)OC)C(C)(C)C)OC(=O)CN(C)C(=O)[C@@H](N)Cc1ccccc1)C(C)(C)C.Cl.Cl

- recovery [17]: 14%
- Drug recovery [18]: 1.3%
- Drug recovery [19]: 45%
Compound: CC(C)(C)NCC(O)COc1cccc2c1CC(O)C(O)C2 (stereo not drawn) [NADOLOL]

- solubility [5]: > 2150 µg/mL
- half-life at 50000 µM [6]: > 500 h
- Tmax [20]: 3 h
- solubility [21]: > 1200 µg/mL
- IC50 [22]: 0.004 to 1.14 µM
- Cmax [9]: 4 nM
- AUClast [23]: 0.085 µM·h
- half-life at 50000 µM [11]: > 500 h
- Tmax [12]: 5 h
- EC50 [24]: 0.0009 to 1.25 µM
- half-life at 50000 µM [14]: > 500 h
- Cmax [25]: 30 nM
- AUClast [16]: 0.02 µM·h
- solubility [26]: 780 µg/mL (≈ 864 µM)
Compound: COC(=O)N[C@H](C(=O)N[C@@H](Cc1ccccc1)[C@H](CN(Cc1ccc(-c2ccccn2)cc1)NC(=O)[C@@H](NC(=O)OC)C(C)(C)C)OC(=O)[C@@H](NC(=O)[C@@H](N)C(C)C)C(C)C)C(C)(C)C
